Where two headings read alike, the source gives them in different places.
Tests used:
Type in all cases: cell-based, Escherichia coli
[1] = system: EKO-35-Pore; test: Checkerboard synergy (FICI), porinated strain
Method: (§1) Synergy measurement using checkerboard analysis was performed in 96-well microtiter plates using the microdilution broth method, according to CLSI guidelines (Patel J. B., 2015). The cell inocula were prepared using the colony resuspension method. The minimum inhibitory concentrations (MICs) were defined as the lowest concentration that provided no growth, as determined by measurement of the OD600nm using a Synergy H1 microplate reader (BioTek). Susceptibility testing was performed in MHB II with a final volume of 100 μL. PAI3N (Bachem Americas) was solubilized in MHB II. […] Solvent controls were included in each plate.
(§2) The Fractional Inhibitory Concentration Index (FICI) was used to assess the synergy of PAI3N in combination with different antibiotics. The FICI represents the ΣFIC of each drug. The FICI for each drug was calculated using the following formula: FICI=FICA+FICB=(CA/MICA)+(CB/MICB). Where MICA and MICB are the MICs of drugs A (PAI3N/NMP) and B (antibiotic) alone, and CA and CB are the MICs of the drugs in combination. The effects of PAβN or NMP in combination with antibiotics were classified as: synergistic (FICI<0.5), additive (FICI>0.5-1.0), indifferent (FICI>1.0-2.0), and antagonistic (FICI>2.0). Fold increases in resistance provided by efflux pumps were calculated by dividing the MIC values of strains expressing efflux pumps by the MIC value of EKO-35.

[2] = system: EKO-35-Pore acrBD408A (functionally inactive AcrB variant); test: Checkerboard synergy (FICI), porinated strain
Method: as §1, §2

[3] = system: EKO-35 porinated strain expressing acrB; test: Checkerboard synergy (FICI), porinated strain
Method: as §1, §2

[4] = system: EKO-35 porinated strain expressing acrD; test: Checkerboard synergy (FICI), porinated strain; conditions: acrD expressed in the porinated strain
Method: as §1, §2

[5] = system: EKO-35 porinated strain expressing acrF (AcrEF); test: Checkerboard synergy (FICI), porinated strain
Method: as §1, §2

[6] = system: wild-type K-12-Pore; test: Checkerboard synergy (FICI), porinated strain
Method: as §1, §2

[7] = system: EKO-35 strains producing different efflux pumps (EKO-35 araC::X); test: Checkerboard synergy (FICI) of PAβN or NMP with antibiotics
Method: as §1, §2

[8] = system: wild-type E. coli K-12
Method in brief: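 Inocula prepared from resuspended colonies were exposed to PAβN or NMP combined with antibiotics in MHB II checkerboards. Growth was scored by OD600 to define MICs. FICI then classified the interaction, with values under 0.5 counted as synergistic.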

[9] = porinated efflux-deficient strains
[10] = strain EKO-35 Pore, NMP + antibiotic
[11] = EKO-35 acrBD408A Pore, NMP + antibiotic
[12] = EKO-35 acrBD408A Pore, PAβN + antibiotic
[13] = strain EKO-35 acrBD408A Pore, NMP + antibiotic
[14] = EKO-35 acrB Pore, NMP + antibiotic
[15] = EKO-35 acrB Pore, PAβN + antibiotic
[16] = strain EKO-35 acrB Pore, NMP + antibiotic
[17] = EKO-35 acrEF Pore, NMP + antibiotic
[18] = EKO-35 acrEF Pore, PAβN + antibiotic
[19] = strain EKO-35 acrEF Pore, NMP + antibiotic
[20] = strain K-12 Pore, NMP + antibiotic
[21] = EKO-35 mdtEF, PAβN + antibiotic
[22] = strain EKO-35 acrB, NMP + antibiotic
[23] = strain EKO-35 acrEF, NMP + antibiotic
[24] = strain EKO-35 mdtEF, NMP + antibiotic

Q: Which results are given for `CC[C@H]1OC(=O)[C@H](C)[C@@H](O[C@H]2C[C@@](C)(OC)[C@@H](O)[C@H](C)O2)[C@H](C)[C@@H](O[C@@H]2O[C@H](C)C[C@H](N(C)C)[C@H]2O)[C@](C)(O)C[C@@H](C)C(=O)[C@H](C)[C@@H](O)[C@]1(C)O` [erythromycin]?
A: Effect ([1]; EKO-35 Pore, NMP + antibiotic): Additive; FICI ([1]; EKO-35 Pore, NMP + antibiotic): 0.770; Effect ([1]; EKO-35 Pore, PAβN + antibiotic): Additive; FICI ([1]; EKO-35 Pore, PAβN + antibiotic): 0.610; MICb Alone ([1]; EKO-35 Pore, antibiotic alone (PAβN checkerboard)): 0.13 µg/mL; MICb Combined ([1]; EKO-35 Pore, antibiotic in combination with PAβN): 0.063 µg/mL; interaction of NMP in combination with the labelled antibiotic (FICI) [1, 9]: no longer synergistic; interaction of PAβN in combination with the labelled antibiotic (FICI) [1, 9]: no longer synergistic; Effect [1, 10]: Additive (additive (FICI >0.5-1.0)); FICI [1, 10]: 0.770; MICb Alone ([1]; strain EKO-35 Pore, antibiotic alone): 0.25 µg/mL; MICb Combined ([1]; strain EKO-35 Pore, antibiotic in combination with NMP): 0.13 µg/mL; Effect [2, 11]: Additive; FICI [2, 11]: 0.735; Effect [2, 12]: Additive; FICI [2, 12]: 0.735; MICb Alone ([2]; EKO-35 acrBD408A Pore, antibiotic alone (PAβN checkerboard)): 0.13 µg/mL; MICb Combined ([2]; EKO-35 acrBD408A Pore, antibiotic in combination with PAβN): 0.063 µg/mL; Effect [2, 13]: Additive (additive (FICI >0.5-1.0)); FICI [2, 13]: 0.735; MICb Alone ([2]; strain EKO-35 acrBD408A Pore, antibiotic alone): 0.13 µg/mL; MICb Combined ([2]; strain EKO-35 acrBD408A Pore, antibiotic in combination with NMP): 0.063 µg/mL; Effect [3, 14]: Additive; FICI [3, 14]: 0.563; Effect [3, 15]: Synergistic; FICI [3, 15]: 0.078; MICb Alone ([3]; EKO-35 acrB Pore, antibiotic alone (PAβN checkerboard)): 32 µg/mL; MICb Combined ([3]; EKO-35 acrB Pore, antibiotic in combination with PAβN): 0.5 µg/mL; Effect [3, 16]: Additive (additive (FICI >0.5-1.0)); FICI [3, 16]: 0.563; MICb Alone ([3]; strain EKO-35 acrB Pore, antibiotic alone): 8 µg/mL; MICb Combined ([3]; strain EKO-35 acrB Pore, antibiotic in combination with NMP): 0.5 µg/mL; interaction of PAβN in combination with the labelled antibiotic (FICI) [4]: still observed; Effect [5, 17]: Additive; FICI [5, 17]: 0.750; Effect [5, 18]: Synergistic; FICI [5, 18]: 0.385; MICb Alone ([5]; EKO-35 acrEF Pore, antibiotic alone (PAβN checkerboard)): 0.5 µg/mL; MICb Combined ([5]; EKO-35 acrEF Pore, antibiotic in combination with PAβN): 0.13 µg/mL; Effect [5, 19]: Additive (additive (FICI >0.5-1.0)); FICI [5, 19]: 0.750; MICb Alone ([5]; strain EKO-35 acrEF Pore, antibiotic alone): 1 µg/mL; MICb Combined ([5]; strain EKO-35 acrEF Pore, antibiotic in combination with NMP): 0.5 µg/mL; FICI ([6]; K-12 Pore, NMP + antibiotic): 1.000; Effect ([6]; K-12 Pore, PAβN + antibiotic): Synergistic; MICb Alone ([6]; K-12 Pore, antibiotic alone (PAβN checkerboard)): 4 µg/mL; MICb Combined ([6]; K-12 Pore, antibiotic in combination with PAβN): 0.25 µg/mL; Effect [6, 20]: — (indifferent (FICI >1.0)); FICI [6, 20]: 1.000; MICb Alone ([6]; strain K-12 Pore, antibiotic alone): 16 µg/mL; MICb Combined ([6]; strain K-12 Pore, antibiotic in combination with NMP): 8 µg/mL; Effect ([7]; EKO-35 acrB, NMP + antibiotic): Additive; FICI ([7]; EKO-35 acrB, NMP + antibiotic): 0.531; Effect ([7]; EKO-35 acrB, PAβN + antibiotic): Synergistic; FICI ([7]; EKO-35 acrB, PAβN + antibiotic): 0.078; MICb Alone ([7]; EKO-35 acrB, antibiotic alone (PAβN checkerboard)): 64 µg/mL; MICb Combined ([7]; EKO-35 acrB, antibiotic in combination with PAβN): 1 µg/mL; FICI ([7]; EKO-35 acrEF, NMP + antibiotic): 2.000; Effect ([7]; EKO-35 acrEF, PAβN + antibiotic): Synergistic; MICb Alone ([7]; EKO-35 acrEF, antibiotic alone (PAβN checkerboard)): 8 µg/mL; MICb Combined ([7]; EKO-35 acrEF, antibiotic in combination with PAβN): 0.5 µg/mL; Effect ([7]; EKO-35 mdtEF, NMP + antibiotic): Synergistic; FICI ([7]; EKO-35 mdtEF, NMP + antibiotic): 0.250; Effect [7, 21]: Synergistic; FICI [7, 21]: 0.094; MICb Alone ([7]; EKO-35 mdtEF, antibiotic alone (PAβN checkerboard)): 16 µg/mL; MICb Combined ([7]; EKO-35 mdtEF, antibiotic in combination with PAβN): 0.5 µg/mL; Effect ([7]; EKO-35 mexCD, NMP + antibiotic): Synergistic; Effect ([7]; EKO-35 mexCD, PAβN + antibiotic): Synergistic; MICb Alone ([7]; EKO-35 mexCD, antibiotic alone (PAβN checkerboard)): 8 µg/mL; MICb Combined ([7]; EKO-35 mexCD, antibiotic in combination with PAβN): 0.5 µg/mL; Effect [7, 22]: Additive (additive (FICI >0.5-1.0)); FICI [7, 22]: 0.531; MICb Combined ([7]; strain EKO-35 acrB, antibiotic in combination with NMP): 64 µg/mL; Effect [7, 23]: — (indifferent (FICI >1.0)); FICI [7, 23]: 2.000; MICb Alone ([7]; strain EKO-35 acrEF, antibiotic alone): 8 µg/mL; MICb Combined ([7]; strain EKO-35 acrEF, antibiotic in combination with NMP): 8 µg/mL; Effect [7, 24]: Synergistic (Synergy (FICI ≤0.5)); FICI [7, 24]: 0.250; MICb Alone ([7]; strain EKO-35 mdtEF, antibiotic alone): 64 µg/mL; MICb Combined ([7]; strain EKO-35 mdtEF, antibiotic in combination with NMP): 8 µg/mL; Effect ([7]; strain EKO-35 mexCD, NMP + antibiotic): Synergistic (Synergy (FICI ≤0.5)); MICb Alone ([7]; strain EKO-35 mexCD, antibiotic alone): 16 µg/mL; MICb Combined ([7]; strain EKO-35 mexCD, antibiotic in combination with NMP): 2 µg/mL; Effect ([8]; K-12, NMP + antibiotic): Additive; FICI ([8]; K-12, NMP + antibiotic): 0.625; Effect ([8]; K-12, PAβN + antibiotic): Synergistic; FICI ([8]; K-12, PAβN + antibiotic): 0.094; MICb Alone ([8]; K-12, antibiotic alone (PAβN checkerboard)): 64 µg/mL; MICb Combined ([8]; K-12, antibiotic in combination with PAβN): 2 µg/mL; Effect ([8]; strain K-12, NMP + antibiotic): Additive (additive (FICI >0.5-1.0)); FICI ([8]; strain K-12, NMP + antibiotic): 0.625; MICb Combined ([8]; strain K-12, antibiotic in combination with NMP): 16 µg/mL
